Assay results: patent US6525001B1, “Substituted pyrimidine and pyridine herbicides” (Mid-American Commercialization Corporation, priority 1997, dated 2003)

Key:
Format in all cases: in vivo
Parameters in all cases: key: 0 is no effect; 10 is complete control
[1] = system: bedstraw (Galium aparine); experiment: Test B pre-/postemergence
Method in brief: (§1)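 Response scores run from 0, meaning no effect, to 10, meaning complete control, assigned by eye relative to controls twelve to sixteen days after spraying. Treatment was both preemergence on planted seed and postemergence on plants at the 1- to 4-leaf stage.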

[2] = system: blackgrass (Alopecurus myosuroides); experiment: Test B pre-/postemergence
Method in brief: as §1

[3] = system: broadleaf signalgrass (Brachiaria decumbens); experiment: Test B pre-/postemergence
Method in brief: as §1

[4] = system: cocklebur (Xanthium strumarium); experiment: Test B pre-/postemergence; conditions: for Plant response rating, Cocklebur: Postemergence; for Cocklebur plant response rating: Preemergence
Method in brief: as §1

[5] = system: corn (Zea mays); experiment: Test B pre-/postemergence
Method in brief: as §1

[6] = system: crabgrass (Digitaria sanguinalis); experiment: Test B pre-/postemergence
Method in brief: as §1

[7] = system: giant foxtail (Setaria faberii); experiment: Test B pre-/postemergence
Method in brief: as §1

[8] = system: momingglory (Ipomoea hederacea); experiment: Test B pre-/postemergence
Method in brief: as §1

[9] = system: pigweed (Amaranthus retroflexus); experiment: Test B pre-/postemergence
Method in brief: as §1

[10] = system: purple nutsedge (Cyperus rotundus); experiment: Test B pre-/postemergence
Method in brief: as §1

[11] = system: rape (Brassica napus); experiment: Test B pre-/postemergence
Method in brief: as §1

[12] = system: soybean (Glycine max); experiment: Test B pre-/postemergence
Method in brief: as §1

[13] = system: sugar beet (Beta vulgaris); experiment: Test B pre-/postemergence
Method in brief: as §1

[14] = system: velvetleaf (Abutilon theophrasti); experiment: Test B pre-/postemergence
Method in brief: as §1

[15] = system: wheat (Triticum aestivum); experiment: Test B pre-/postemergence
Method in brief: as §1

[16] = system: wild oat (Avena fatua); experiment: Test B pre-/postemergence
Method in brief: as §1

[17] = system: bamyardgrass (Echinochloa crus-galli); experiment: Test B flood test
Method in brief: (§2)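 Each value is a visual injury score relative to controls, with 10 meaning complete control and 0 no effect. Evaluation took place twelve to sixteen days after the 2-leaf-stage plants were treated and kept in the greenhouse.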

[18] = system: duck salad (Heteranthera limosa); experiment: Test B flood test
Method in brief: as §2

[19] = system: rice (Oryza sativa); experiment: Test B flood test
Method in brief: as §2

[20] = system: smallflower flatsedge (Cyperus difformis); experiment: Test B flood test
Method in brief: as §2

[21] = Rate 62 g/ha, Postemergence (flood test)
[22] = Rate 125 g/ha, Postemergence, flood test
[23] = Rate 250 g/ha, Postemergence (flood test species)

COC(c1cccc(C(F)(F)F)c1)c1nc(-c2ccc(C(F)(F)F)cc2)ncc1C (racemic) [Compound 20]
Plant response rating, Bedstraw ([1]; Rate 62 g/ha, Postemergence): 4 | Bedstraw plant response rating ([1]; Rate 62 g/ha, Preemergence): 0 | Plant response rating, Bedstraw ([1]; Rate 125 g/ha, Postemergence): 4 | Bedstraw plant response rating ([1]; Rate 125 g/ha, Preemergence): 0 | Plant response rating, Bedstraw ([1]; Rate 250 g/ha, Postemergence): 4 | Plant response rating, Bedstraw ([1]; Rate 250 g/ha, Preemergence): 1 | Plant response rating, Blackgrass ([2]; Rate 62 g/ha, Postemergence): 2 | Blackgrass plant response rating ([2]; Rate 62 g/ha, Preemergence): 1 | Plant response rating, Blackgrass ([2]; Rate 125 g/ha, Postemergence): 2 | Blackgrass plant response rating ([2]; Rate 125 g/ha, Preemergence): 2 | Plant response rating, Blackgrass ([2]; Rate 250 g/ha, Postemergence): 3 | Plant response rating, Blackgrass ([2]; Rate 250 g/ha, Preemergence): 4 | Plant response rating, B. signalgrass ([3]; Rate 62 g/ha, Postemergence): 2 | B. signalgrass plant response rating ([3]; Rate 62 g/ha, Preemergence): 0 | Plant response rating, B. signalgrass ([3]; Rate 125 g/ha, Postemergence): 2 | B. signalgrass plant response rating ([3]; Rate 125 g/ha, Preemergence): 1 | Plant response rating, B. signalgrass ([3]; Rate 250 g/ha, Postemergence): 3 | Plant response rating, B. signalgrass ([3]; Rate 250 g/ha, Preemergence): 4 | Plant response rating, Cocklebur ([4]; Rate 62 g/ha): 4 | Cocklebur plant response rating ([4]; Rate 62 g/ha): 0 | Plant response rating, Cocklebur ([4]; Rate 125 g/ha): 5 | Cocklebur plant response rating ([4]; Rate 125 g/ha): 0 | Plant response rating, Cocklebur ([4]; Rate 250 g/ha): 7 | Plant response rating, Corn ([5]; Rate 62 g/ha, Postemergence): 3 | Corn plant response rating ([5]; Rate 62 g/ha, Preemergence): 0 | Plant response rating, Corn ([5]; Rate 125 g/ha, Postemergence): 3 | Corn plant response rating ([5]; Rate 125 g/ha, Preemergence): 0 | Plant response rating, Corn ([5]; Rate 250 g/ha, Postemergence): 3 | Plant response rating, Corn ([5]; Rate 250 g/ha, Preemergence): 0 | Plant response rating, Crabgrass ([6]; Rate 62 g/ha, Postemergence): 2 | Crabgrass plant response rating ([6]; Rate 62 g/ha, Preemergence): 0 | Plant response rating, Crabgrass ([6]; Rate 125 g/ha, Postemergence): 3 | Crabgrass plant response rating ([6]; Rate 125 g/ha, Preemergence): 1 | Plant response rating, Crabgrass ([6]; Rate 250 g/ha, Postemergence): 3 | Plant response rating, Crabgrass ([6]; Rate 250 g/ha, Preemergence): 2 | Plant response rating, Giant foxtail ([7]; Rate 62 g/ha, Postemergence): 2 | Giant foxtail plant response rating ([7]; Rate 62 g/ha, Preemergence): 0 | Plant response rating, Giant foxtail ([7]; Rate 125 g/ha, Postemergence): 2 | Giant foxtail plant response rating ([7]; Rate 125 g/ha, Preemergence): 0 | Plant response rating, Giant foxtail ([7]; Rate 250 g/ha, Postemergence): 3 | Plant response rating, Giant foxtail ([7]; Rate 250 g/ha, Preemergence): 1 | Plant response rating, Morningglory ([8]; Rate 62 g/ha, Postemergence): 3 | Morningglory plant response rating ([8]; Rate 62 g/ha, Preemergence): 0 | Plant response rating, Morningglory ([8]; Rate 125 g/ha, Postemergence): 4 | Morningglory plant response rating ([8]; Rate 125 g/ha, Preemergence): 0 | Plant response rating, Morningglory ([8]; Rate 250 g/ha, Postemergence): 4 | Plant response rating, Morningglory ([8]; Rate 250 g/ha, Preemergence): 0 | Plant response rating, Redroot pigweed ([9]; Rate 62 g/ha, Postemergence): 5 | Redroot pigweed plant response rating ([9]; Rate 62 g/ha, Preemergence): 0 | Plant response rating, Redroot pigweed ([9]; Rate 125 g/ha, Postemergence): 7 | Redroot pigweed plant response rating ([9]; Rate 125 g/ha, Preemergence): 0 | Plant response rating, Redroot pigweed ([9]; Rate 250 g/ha, Postemergence): 8 | Plant response rating, Redroot pigweed ([9]; Rate 250 g/ha, Preemergence): 1 | Plant response rating, Nutsedge ([10]; Rate 62 g/ha, Postemergence): 0 | Nutsedge plant response rating ([10]; Rate 62 g/ha, Preemergence): 0 | Plant response rating, Nutsedge ([10]; Rate 125 g/ha, Postemergence): 0 | Plant response rating, Nutsedge ([10]; Rate 250 g/ha, Postemergence): 0 | Plant response rating, Nutsedge ([10]; Rate 250 g/ha, Preemergence): 0 | Plant response rating, Rape ([11]; Rate 62 g/ha, Postemergence): 3 | Rape plant response rating ([11]; Rate 62 g/ha, Preemergence): 0 | Plant response rating, Rape ([11]; Rate 125 g/ha, Postemergence): 4 | Rape plant response rating ([11]; Rate 125 g/ha, Preemergence): 0 | Plant response rating, Rape ([11]; Rate 250 g/ha, Postemergence): 5 | Plant response rating, Rape ([11]; Rate 250 g/ha, Preemergence): 0 | Plant response rating, Soybean ([12]; Rate 62 g/ha, Postemergence): 4 | Soybean plant response rating ([12]; Rate 62 g/ha, Preemergence): 0 | Plant response rating, Soybean ([12]; Rate 125 g/ha, Postemergence): 5 | Soybean plant response rating ([12]; Rate 125 g/ha, Preemergence): 0 | Plant response rating, Soybean ([12]; Rate 250 g/ha, Postemergence): 6 | Plant response rating, Soybean ([12]; Rate 250 g/ha, Preemergence): 0 | Plant response rating, Sugarbeets ([13]; Rate 62 g/ha, Postemergence): 3 | Sugarbeets plant response rating ([13]; Rate 62 g/ha, Preemergence): 0 | Plant response rating, Sugarbeets ([13]; Rate 125 g/ha, Postemergence): 5 | Sugarbeets plant response rating ([13]; Rate 125 g/ha, Preemergence): 0 | Plant response rating, Sugarbeets ([13]; Rate 250 g/ha, Postemergence): 7 | Plant response rating, Sugarbeets ([13]; Rate 250 g/ha, Preemergence): 2 | Plant response rating, Velvetleaf ([14]; Rate 62 g/ha, Postemergence): 4 | Velvetleaf plant response rating ([14]; Rate 62 g/ha, Preemergence): 0 | Plant response rating, Velvetleaf ([14]; Rate 125 g/ha, Postemergence): 6 | Velvetleaf plant response rating ([14]; Rate 125 g/ha, Preemergence): 0 | Plant response rating, Velvetleaf ([14]; Rate 250 g/ha, Postemergence): 7 | Plant response rating, Velvetleaf ([14]; Rate 250 g/ha, Preemergence): 0 | Plant response rating, Wheat ([15]; Rate 62 g/ha, Postemergence): 2 | Wheat plant response rating ([15]; Rate 62 g/ha, Preemergence): 0 | Plant response rating, Wheat ([15]; Rate 125 g/ha, Postemergence): 3 | Wheat plant response rating ([15]; Rate 125 g/ha, Preemergence): 0 | Plant response rating, Wheat ([15]; Rate 250 g/ha, Postemergence): 3 | Plant response rating, Wheat ([15]; Rate 250 g/ha, Preemergence): 0 | Plant response rating, Wild oats ([16]; Rate 62 g/ha, Postemergence): 2 | Wild oats plant response rating ([16]; Rate 62 g/ha, Preemergence): 1 | Plant response rating, Wild oats ([16]; Rate 125 g/ha, Postemergence): 3 | Wild oats plant response rating ([16]; Rate 125 g/ha, Preemergence): 2 | Plant response rating, Wild oats ([16]; Rate 250 g/ha, Postemergence): 3 | Plant response rating, Wild oats ([16]; Rate 250 g/ha, Preemergence): 3 | Plant response rating, Barnyardgrass [17, 21]: 0 | Plant response rating, Barnyardgrass [17, 22]: 0 | Plant response rating, Barnyardgrass [17, 23]: 0 | Plant response rating, Ducksalad [18, 21]: 0 | Plant response rating, Ducksalad [18, 22]: 0 | Plant response rating, Ducksalad [18, 23]: 0 | Plant response rating, Rice [19, 21]: 0 | Plant response rating, Rice [19, 22]: 0 | Plant response rating, Rice [19, 23]: 0 | Plant response rating, S. Flatsedge [20, 21]: 0 | Plant response rating, S. Flatsedge [20, 22]: 0 | Plant response rating, S. Flatsedge [20, 23]: 0
